Here are results for four compounds from patent US11412771B2, “Composition to improve athletic performance by supporting muscle protein synthesis and mental focus” (The Amino Company LLC, priority 2019, dated 2022).

Read-outs that look alike come from different tables or passages of the source.

Series [1] relates to nitric oxide (NO) synthesis. The experiment in a line: In vivo kinetics of nitric oxide (NO) metabolism after citrulline ingestion (stable isotope tracer). Set-up: species or system human. The following applies: 3 grams; for NO synthesis rate after citrulline ingestion: after 3 hours; for De novo arginine synthesis after citrulline ingestion: over 3 hours. As to the method:
FIGS. 6A-B depicts graphs showing plasma arginine concentration (FIG. 6A) and nitric oxide (NO) synthesis (FIG. 6B) in human subjects over 3 hours following citrulline ingestion (3 grams) wherein the subjects were either elderly (n=8, 77±9 years of age, 93±4 kg) or young individuals (n=8, 27±9 years of age, 70±5 kg).
EXAMPLE 5. A kinetic study with a stable isotope tracer method was performed to determine in vivo kinetics of nitric oxide (NO) metabolism in relation to citrulline ingestion in older adult humans (n=8, 77±9 years, 93±4 kg) and in young adult humans (n=8, 27±9 years, 70±5 kg). In the fasted state, NO synthesis (expressed per kg fat free mass) was ˜50% lower in older vs. young adults and was related to a decreased rate of appearance of the NO precursor arginine. Citrulline ingestion (3 grams) stimulated de novo arginine synthesis in both older (6.88±0.83 to 35.40±4.90 μmol·kg body wt^−1·h^−1) and, to a greater extent, in young adults (12.02±1.01 to 66.26±4.79 μmol·kg body wt^−1 h^−1) over 3 hours (FIG. 6A). NO synthesis rate increased correspondingly in older (0.17±0.01 to 2.12±0.36 μmol·kg body wt^−1·h^−1) and, to a greater extent, in young adults (0.36±0.04 to 3.57±0.47 μmol·kg body wt^−1·h^−1) after 3 hours (FIG. 6B). […] Because arginine can play a role in stimulating muscle protein synthesis as well as increasing blood flow via NO synthesis, the data strongly support citrulline ingestion for acute as well as long-term promotion of muscle function.

The format of series [2] is in vivo, human. As to the method:
FIG. 2 depicts a graph showing leucine, lysine, and phenylalanine oxidation in human subjects at rest and during prolonged aerobic exercise (approximately 30% VO2 max for 105 minutes). Error bars represent standard error of mean (SE) assessed via ANOVA.
EXAMPLE 2. […] 1982, 52(2):458-66 and Wolfe et al., J APPL PHYSIOL RESPIR ENVIRON EXERC PHYSIOL. 1984, 56(1):221-9, both the disclosures of which are herein incorporated by reference in their entirety. Total leucine oxidation increased from 0.38±0.05 to 1.41±0.14 μmol·kg^−1·min^−1 during exercise due to increases in the oxidation of plasma leucine (150%) and intracellular leucine (600%) (FIG. 2). […] These findings provided a rational for providing extra leucine, as well as other branched chain amino acids, before exercise.

`NC(=O)NCCC[C@H](N)C(=O)O` [Citrulline, citrulline]: the “NO synthesis rate after citrulline ingestion” value in series [1] (older adults, basal 0.17±0.01) is on record as 2.12±0.36 μmol·kg body wt^−1·h^−1; in series [1] (young adults, basal 0.36±0.04), 3.57±0.47 μmol·kg body wt^−1·h^−1. Besides, the “De novo arginine synthesis after citrulline ingestion” value amounted to 35.40±4.90 μmol·kg body wt^−1·h^−1 in series [1] (older adults, basal 6.88±0.83) and 66.26±4.79 μmol·kg body wt^−1 h^−1 in series [1] (young adults, basal 12.02±1.01).
In series [2] (human, in vivo), `CC(C)C[C@H](N)C(=O)O` [leucine] had a Total leucine oxidation of 0.38 ± 0.05 µmol/kg/min. For the same compound, in series [2] (human, in vivo, 105 min), the “Increase in the oxidation of intracellular leucine” value worked out at 600%, the “Increase in the oxidation of plasma leucine” value was found to be 150% and the Total leucine oxidation came to 1.41 ± 0.14 µmol/kg/min. Moreover, the Plasma leucine flux entry in series [2] (not told) is recorded as “decreased slightly, but not significantly”.
With `NCCCC[C@H](N)C(=O)O` [lysine], the “Oxidation, change from rest to exercise” value in series [2] (in vivo) is “did not change significantly”.
`N[C@@H](Cc1ccccc1)C(=O)O` [phenylalanine]: the “Oxidation, change from rest to exercise” value in series [2] (in vivo) is “did not change significantly”.
